From patent US20180228787A1, “AMELIORATION OF CERTAIN DEFICIENCIES DUE TO STROKE” (NEURALSTEM, INC., priority 2017, published 2018)

Key:
Assay type in all cases: in vivo, Sprague-Dawley rats
[1] = test system: middle cerebral artery occlusion (MCAo) stroke rats; test: Bederson neurological exam after MCAo stroke
From the text: (§1) A. Stroke surgery. Sixty (60) adult Sprague-Dawley, male rats (weighing around 250 g at beginning of the study) received experimental stroke surgery using the middle cerebral artery occlusion (MCAo) model, under aseptic conditions. […] were anesthetized with 1-2% isoflurane in nitrous oxide/oxygen (69%/30%) using a face mask and checked for pain reflexes. Under deep anesthesia, animals underwent the MCAo surgery which entails insertion of a filament through the carotid artery to reach the junction of the MCA, thus blocking the blood flow from the common carotid artery, as well as from the circle of Willis.
The right common carotid artery was identified and isolated through a ventral midline cervical incision and suture size 4-0, made of sterile, non-absorbable suture (Ethicon, Inc.), with the diameter of the suture tip tapered to 24 to 26-gauge size using a rubber cement. About 15 to 17 mm of the filament was inserted from the junction of the external and internal carotid arteries to block the MCA. The right MCA was occluded for one hour. A heating pad and a rectal thermometer allowed maintenance of body temperature within normal limits (37±0.3° C.).
To further ensure similar degree of stroke insults, physiological parameters including PaO2, PaCO2, and plasma pH measurements were monitored. Based on laser Doppler readouts and behavioral tests after MCAs, a total of 48 animals were enrolled in this study.
B. Drug Treatment. In the treated subjects, 30 mg/kg of the phosphate of formula (2) wherein R^1 is isoamyl (NSI-189 H3PO4 (mol. wt. 464.50)), 99.8% pure based on the weight of the API (active pharmaceutical ingredient) base without the weight of phosphate salt was administered orally in 0.03N HCl in deionized water (n=24) or vehicle (n=24) was administered following MCAo 6 hours after stroke, and daily for the next 12 weeks.
About one hour after the EBST, the Bederson neurological exam was conducted using 3 tests: (1) forelimb retraction—measuring the ability of the rat to replace the forelimb after it was displaced laterally by 2 to 3 cm, graded from 0 (immediate replacement) to 3 (replacement after several seconds or no replacement); (2) beam walking ability, graded 0 for a rat that readily traversed a 2.4-cm-wide, 80-cm-long beam to 3 for a rat unable to stay on the beam for 10 seconds; and (3) bilateral forepaw grasp—the ability to hold onto a 2-mm-diameter steel rod, graded 0 for a rat with normal forepaw grasping behavior to 3 for a rat unable to grasp with the forepaws. The scores from all 3 tests, which were done over a period of about 15 minutes on each assessment day, were added to give a mean neurologic deficit score (maximum possible score, 9 points divided by 3 tests=3). […]

[2] = test system: middle cerebral artery occlusion (MCAo) stroke rats; test: Elevated body swing test (EBST) after MCAo stroke
From the text: as §1
The right common carotid artery was identified and isolated through a ventral midline cervical incision and suture size 4-0, made of sterile, non-absorbable suture (Ethicon, Inc.), with the diameter of the suture tip tapered to 24 to 26-gauge size using a rubber cement. […]
To further ensure similar degree of stroke insults, physiological parameters including PaO2, PaCO2, and plasma pH measurements were monitored. Based on laser Doppler readouts and behavioral tests after MCAs, a total of 48 animals were enrolled in this study. […]
C. […] The direction of the swing, either left or right, was counted once the animals head moves sideways approximately 10 degrees from the midline position of the body. […]

MAP2 = MAP2 immunohistochemistry of stroke brains
From the text: (§2) At scheduled intervals post-stroke (either 12 weeks or 24 weeks), rats of Example 1 were randomly euthanized (n=12 per treatment), perfused by transcardial perfusion with 4% paraformaldehyde. The brains were dissected, post-fixed for overnight in 4% paraformaldehyde, then subsequently immersed in 30% sucrose until immunohistochemical processing. Brain section preparations were designed to identify stroke-induced cerebral infarction and NSI-189-induced neurogenic effects.
(§3) Brains were embedded in gelatin blocks and sectioned on a freezing sliding microtome at 40-μm. The sections were washed in PBS 5×10 min to remove the antigen preservative solution. Endogenous peroxidase was blocked using 3% H2O2 for 15 minutes. The sections were then incubated in 1% Triton-X100 for 30 minutes, and then blocked with 5% Normal Horse Serum (NETS) for 1 hour. The sections were incubated with the primary antibody that binds Ki67 (1:2000, Cat. #: ab16667, Abcam, CA) or that binds MAP2 (1:2000, Cat. #: AB5622, Millipore, MA) overnight, rinsed 5×5 min in PBS prior to pre-incubation in 5% NHS for 1 hour, then incubated with the secondary antibody which corresponded to the respective host of the primary antibody (Donkey or Rabbit, 1:2000, Cat. #: 711-066-152, Jackson ImmunoResearch Laboratories, Inc, PA) for 90 minutes. After rinsing in PBS (5×5 min), the sections were incubated with peroxidase-conjugated streptavidin (1:5000, Cat. #: 016-030-084, Jackson ImmunoResearch Laboratories, Inc, PA) with 1% NHS. The sections were washed 5×5 min in PBS after the streptavidin, prior to developing with DAB (3,3′-Diaminobenzidine Tetrahydrochloride Hydrate, Cat #: 1001306853, Sigma-Aldrich, St. Louis, Mo.) and Nickel chloride. After DAB processing, the sections were rinsed, mounted, and air-dried overnight. The slides were dehydrated, and coverslipped with DPX Mounting Medium (Cat #: 13512, Electron Microscopy Sciences, Hatfield, Pa.).
(§4) The slides were imaged and reviewed under Nikon bright-field microscope (Nikon, Tokyo, Japan). The regions of interest (ROIs), including the cerebral cortex, the hippocampal subfields (CA1+CA2, CA3 and DG) were contoured rostro-caudally and the immunoreactivity of the MAP2 density was measured by Nikon NIS-Element software and Ki67+ cells counted rostro-caudally along the subgranular zone (SGZ) by Image-Pro Premier (v10.10), respectively. The slides were coded and blinded to the analysts during the course of the study. After completion, quantitative data were extracted and transferred for the statistical analysis (Prism, GraphPad®, La Jolla, Calif.). The data values between groups were compared using ANOVA with Tukey's post-hoc tests (p<0.05).

Ki67 = Ki67 immunohistochemistry of stroke brains
From the text: as §2
as §3, with “The sections were washed 5×5 min in PBS after the streptavidin, prior to developing with DAB (3,3′-Diaminobenzidine Tetrahydrochloride Hydrate, Cat #: 1001306853, Sigma-Aldrich, St. Louis, Mo.) and Nickel chloride. After DAB processing, the sections were rinsed, mounted, and air-dried overnight. The slides were dehydrated, and coverslipped with DPX Mounting Medium (Cat #: 13512, Electron Microscopy Sciences, Hatfield, Pa.).” left out
as §4, with “The slides were coded and blinded to the analysts during the course of the study.” left out, “The data values between groups were compared using ANOVA with Tukey's post-hoc tests (p<0.05).” left out

[3] = 12 weeks and 24 weeks post-stroke, vs vehicle, p's>0.05
[4] = vs vehicle-treated stroke animals

Structure (SMILES): CC(C)CCNc1ncccc1C(=O)N1CCN(Cc2ccccc2)CC1.O=P(O)(O)O [NSI-189 phosphate]
- restoring motor skills in the Bederson neurological exam ([1]; MCAo rats, 30 mg/kg orally 6 hours after stroke and daily for 12 weeks, vs vehicle): successful in restoring motor skills
- performance in the Bederson neurological exam (FIG. 2) ([1]; MCAo rats, 30 mg/kg orally daily for 12 weeks, after 6 months): performance approaching that of control even after 6 months
- control of motor skills compared to vehicle animals ([1]; day 3 post stroke, p<0.05): showed control of motor skills as early as day 3 post stroke
- improvement of motor skills over time compared to untreated animals ([1]; during 12 weeks of drug treatment and the next 12 weeks after withdrawal, p<0.05): continued to improve over time compared to untreated animals
- restoring motor skills in the EBST ([2]; 30 mg/kg orally 6 hours after stroke and daily for 12 weeks, vs vehicle): successful in restoring motor skills
- performance in the EBST (FIG. 1) ([2]; 30 mg/kg orally daily for 12 weeks, controls showed no such recovery): recovered performance in the EBST almost to baseline levels
- MAP2 density in the cerebral cortex (MAP2; 12-week period, vs vehicle, p's<0.05): amplified MAP2 density
- MAP2 density in the hippocampus (MAP2; 12-week time point, vs vehicle, p's<0.05): increased MAP2 density
- cerebral infarction by MAP2 expression in the cortex and striatum (MAP2; [3]): did not significantly differ between groups
- MAP2 density in the cerebral cortex (MAP2; 24-week time point, vs vehicle): only detected at the 12-week period
- MAP2 density in the hippocampus (MAP2; 24-week time point, vs vehicle, p's<0.05): increased MAP2 density
- MAP2 staining (neurogenesis) in the peri-infarct cortex (MAP2; [4]): increased Ki67 and MAP2 staining
- Ki67 level in hippocampal subgranular zone (SGZ) (Ki67; [3]): comparable levels of Ki67
- Ki67 level in subventricular zone (SVZ) (Ki67; [3]): comparable levels of Ki67
- Ki67 staining (cell proliferation) in the peri-infarct cortex (Ki67; [4]): increased Ki67
